Patent publication US12220414B2, “Use of sGC stimulators for the treatment of mitochondrial disorders” (Tisento Therapeutics Inc., priority 2018, dated 2025)

What was measured:
[1] = test system: PGC1α; assay: B-DNA gene expression assay, ZSF1 rat model; format: in vivo; details: ZSF1 obese rats
Protocol: There are 4 groups of animals in the study design: • 1. ZSF1 Lean—Vehicle (n=6) • 2. ZSF1 Obese—Vehicle (n=9) • 3. ZSF1 Obese—Compound A 10 mg/kg/day (n=9) • 4. […]
Animals in Group 4 was placed on drinking water containing enalapril and kept on Purina 5008 rodent chow (C13000). Animals in Groups 1-3 were kept on Purina 5008 rodent chow and drinking water. Ten days after the initiation of enalapril treatment, […] received Compound A at 10 mg/kg/day, respectively for 11 weeks (monotherapy). Beginning on day 10, animals in Groups 3 and 4 received Compound A at 10 mg/kg/day in addition to enalapril for an additional 11 weeks (combination therapy). […]
(§1) For gene expression analysis, 5-10 mg of tissue samples from ZSF1 rat liver, CCl4 rat liver, or DIO mice brain hypothalamus, or approximately 50 mg of white adipose tissue (WAT) from ZSF1 rat were homogenized and processed using QuantiGene sample processing kit according to manufacturer's instruction (Affymatrix, Fremont, CA). Gene expression in the tissue samples was measured using a QuantiGene 2.0 Plex Assay kit (Affymetrix) and multiplex gene panel specifically designed for each animal model following manufacture instructions. Analytes were measured using Luminex MAGPIX™ (Bio-Rad, Hercules, CA). […]

[2] = test system: Leigh patient cells GM13740; assay: ATP assay (ATPlite); format: cell-based, human; details: compound alone or in combination with DETA, 24 hrs
Protocol: (§2) Lymphoblast cells of LHON patient (GM11605 and GM10742) and Leigh patient (GM13740) were purchased from Coriell institute and cultured according to recommended growth condition from the vendor. The culture medium RPMI-1640 (ATCC, catalog #30-2006) containing 15% fetal bovine serum (Corning catalog #35-015-CV).
(§3) Corielll cells were plated on 96-well V-bottom culture plate (Corning Catalog #3894) at density of 200,000 cells per well in 90 ul RPMI-1640 media containing 2% FBS. Three hours later, 10 μL per well of 10× compounds (at its final conc.) diluted in RPMI-1640 media containing 2% FBS were added to the cells and incubated at 37 C for 24 hrs. The next day, ATP levels in the cells were measure using ATPlite kit (PerkinElmer Cat #6016943)

[3] = molecular target: T1, sGC (Homo sapiens, UniProt Q02153); assay: cGMP measurement in mitochondrial disease patient lymphoblast cells; format: cell-based; details: in combination with DETA
T1 construct: confirming functional expression of sGC in these patient cells; host or cells: human LHON and Leigh patient lymphoblast cells
T1 sequence (Q02153 1-619): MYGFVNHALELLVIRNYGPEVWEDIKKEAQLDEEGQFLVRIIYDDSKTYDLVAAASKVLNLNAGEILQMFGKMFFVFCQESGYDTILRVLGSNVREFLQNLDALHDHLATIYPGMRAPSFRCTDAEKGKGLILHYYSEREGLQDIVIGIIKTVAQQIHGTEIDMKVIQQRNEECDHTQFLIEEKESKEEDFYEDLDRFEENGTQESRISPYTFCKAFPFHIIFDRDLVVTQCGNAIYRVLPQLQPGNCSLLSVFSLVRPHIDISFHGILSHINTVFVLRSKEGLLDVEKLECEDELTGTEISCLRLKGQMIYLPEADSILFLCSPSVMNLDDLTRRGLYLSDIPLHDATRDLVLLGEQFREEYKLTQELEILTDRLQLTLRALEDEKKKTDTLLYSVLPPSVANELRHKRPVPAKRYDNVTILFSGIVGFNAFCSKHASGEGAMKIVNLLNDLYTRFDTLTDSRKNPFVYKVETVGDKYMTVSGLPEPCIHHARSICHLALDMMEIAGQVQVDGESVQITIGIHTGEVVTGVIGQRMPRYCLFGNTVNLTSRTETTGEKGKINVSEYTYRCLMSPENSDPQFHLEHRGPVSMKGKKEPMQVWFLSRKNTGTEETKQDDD
T1 sequence (Q02108 1-690 partner): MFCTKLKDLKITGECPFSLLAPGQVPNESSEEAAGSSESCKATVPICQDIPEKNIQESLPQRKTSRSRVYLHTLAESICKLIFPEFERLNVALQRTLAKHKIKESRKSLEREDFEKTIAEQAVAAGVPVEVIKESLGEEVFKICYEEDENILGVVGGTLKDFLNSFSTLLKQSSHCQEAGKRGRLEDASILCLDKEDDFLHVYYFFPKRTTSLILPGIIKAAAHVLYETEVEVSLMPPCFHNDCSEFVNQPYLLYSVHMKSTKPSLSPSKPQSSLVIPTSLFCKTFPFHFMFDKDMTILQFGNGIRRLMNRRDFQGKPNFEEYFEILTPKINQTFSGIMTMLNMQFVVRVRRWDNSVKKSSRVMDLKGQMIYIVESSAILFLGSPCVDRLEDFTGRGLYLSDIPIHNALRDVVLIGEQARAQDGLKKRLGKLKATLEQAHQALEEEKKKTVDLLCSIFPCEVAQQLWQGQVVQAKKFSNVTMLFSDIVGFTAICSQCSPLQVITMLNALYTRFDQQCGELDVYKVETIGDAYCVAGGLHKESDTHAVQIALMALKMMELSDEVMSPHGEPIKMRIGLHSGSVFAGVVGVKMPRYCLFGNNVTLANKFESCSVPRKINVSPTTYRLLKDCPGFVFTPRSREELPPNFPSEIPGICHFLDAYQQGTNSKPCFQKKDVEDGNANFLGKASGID
Protocol: as §2
On the day of the assay, Coriell cells were plated on 96-well V-bottom culture plate (Corning Catalog #3894) at density of 200,000 cells per well in 100 ul culture media. Right before the assay, cells were spun down by centrifuging in a benchtop centrifuge (Beckman Model #TJ-25) at 300 g for 5 min, media was removed and cell pellets were carefully washed once with 200 μL of HBSS containing Ca^2+ and Mg^2+ (Gibco catalog #14025-075). The cells were spun down, then 90 μL per well of HBSS containing 0.5 mM IBMX was added to the cells and were incubated at 37° C. for 15 min. Then 10 μL per well of 10× compounds (at its final conc.) diluted in HBSS solution containing IBMX plus different concentration of NO donor, DETA (final concentration of 0, 10 μM, 30 μM) was added to the cells and incubated at 37° C. for another 20 min. Cell pellets were spun down and lysed with 0.1 N HCl (100 ul/well). cGMP was measured using a cGMP Biotrak EIA kit (GE cat no. RPN226). cGMP concentrations of the samples were calculated from the standard curve.

[4] = test system: LHON patient cells GM11605; assay: ATP assay (ATPlite); format: cell-based, human; details: compound alone or in combination with DETA, 24 hrs
Protocol: as §2, §3

[5] = test system: PGC1α; assay: B-DNA gene expression assay, diet-induced obesity (DIO) mouse model, hypothalamus; format: in vivo; details: DIO mice, compound in high fat diet; FIG. 1C
Protocol: (§4) Animals were fed either chow or high fat diet (Research Diets). The lean mice were maintained on a standard chow diet. The obese mice were given 60% high fat diet (HFD) starting at 6 weeks of age. All animals were allowed free access to drinking water and chow. The study began when the mice were 12 weeks of age and concluded after 4 weeks (16 weeks of age). The obese control group was maintained on HFD. Groups receiving compound treatments were fed with HFD containing 90 mg Compound A/kg diet (an approximate dose of 6 mg/kg) or 45 mg vericiguat/kg diet (an approximate dose of 3 mg/kg). Body weights were determined twice weekly and food intake was measured daily for 28 days. […]
as §1

[6] = test system: LHON patient cells GM10742; assay: ATP assay (ATPlite); format: cell-based, human; details: compound alone or in combination with DETA, 24 hrs
Protocol: as §2, §3

[7] = test system: DDAH2; assay: bDNA gene expression assay in patient cells; format: cell-based, human; details: in the presence of DETA
Protocol: as §2
(§5) Coriell cells were plated on 96-well V-bottom culture plate (Corning Catalog #3894) at density of 200,000 cells per well in 90 ul RPMI-1640 media containing 2% FBS. Three hours later, 10 μL per well of 10× compounds (at its final conc.) diluted in RPMI-1640 media containing 2% FBS were added to the cells and incubated at 37 C for 24 hrs. The next day, cells were spun down by centrifuging in a benchtop centrifuge (Beckman Model #TJ-25) at 300 g for 5 min, media was removed and cell pellets were lysed in 100 μL/well with lysis mixture provided by QuantiGene sample processing kit (Affymetrix catalog #QS010). Gene expression in the cell lysates was measured using a QuantiGene 2.0 Plex Assay kit (Affymetrix catalog #QP1013) and multiplex gene panel (Thermo/Fisher, plex set #QGP-150-M19022101) according to manufacturer's protocols. Analytes were measured using Luminex MAGPIX™ (Bio-Rad, Hercules, CA). Median fluorescence intensity (MFI) was generated for each gene target and normalized to the geometric mean expression of three housekeeping genes (Hprt1, Ppib and Polr2a), which were chosen to match the target transcript abundance.

[8] = test system: TFAM; assay: bDNA gene expression assay in patient cells; format: cell-based, human; details: in the presence of DETA
Protocol: as §2, §5

[9] = test system: AMPK; assay: B-DNA gene expression assay, DIO mouse model, WAT; format: in vivo; details: DIO mice; 6 mg/kg in diet, 28 days; FIG. 2A (AMPKα1, eWAT)
Protocol: as §4, §1

[10] = test system: Pparα; assay: B-DNA gene expression assay, DIO mouse model, WAT; format: in vivo; details: DIO mice; 6 mg/kg in diet, 28 days; FIG. 2B (eWAT)
Protocol: as §4, §1

[11] = test system: Pparγ; assay: B-DNA gene expression assay, carbon tetrachloride (CCl4) rat model, liver; format: in vivo, Sprague-Dawley rat; details: CCl4 rats; 3 mg/kg; FIG. 2C
Protocol: Male, Sprague-Dawley rat were dosed with 0.25 ml/kg of CCl4 PO three times a week diluted in corn oil for the duration of the study (8 weeks). Control animals received an equivalent volume of corn oil. Two weeks after beginning the administration of CCl4, animals were given a chow admixture containing Compound A calculated to achieve doses of 3 mg/kg/day.
For gene expression analysis, 5-10 mg of tissue samples from ZSF1 rat liver, CCl4 rat liver, or DIO mice brain hypothalamus, or approximately 50 mg of white adipose tissue (WAT) from ZSF1 rat were homogenized and processed using QuantiGene sample processing kit according to manufacturer's instruction (Affymatrix, Fremont, CA). Gene expression in the tissue samples was measured using a QuantiGene 2.0 Plex Assay kit (Affymetrix) and multiplex gene panel specifically designed for each animal model following manufacture instructions. Analytes were measured using Luminex MAGPIX™ (Bio-Rad, Hercules, CA). Median fluorescence intensity (MFI) was generated for each gene target and normalized to the geometric mean expression of selected housekeeping genes, which were chosen to match the target transcript abundance.

[12] = test system: ADMA; details: diabetic patients; fourteen-day study (Hanrahan et al 2018); cited from earlier work

SMILES: NC(=O)[C@](O)(CNc1nc(-c2cc(-c3ccon3)n(Cc3ccccc3F)n2)ncc1F)C(F)(F)F [Compound D]
- gene expression level of PGC1α in liver ([1]; 30 mg/kg in combination with enalapril at 3 mg/kg, FIG. 1B): increased
- ATP production / ATP level [2]: increased ATP levels significantly

SMILES: Fc1ccccc1Cn1nc(-c2nc(C(F)(F)F)n[nH]2)c2cccnc21 [Compound E]
- cGMP formation ([3]; LHON patient cells GM10742, FIG. 3B): significantly activated
- cGMP formation ([3]; LHON patient cells GM11605, FIG. 3A): significantly activated
- cGMP formation ([3]; Leigh patient cells GM13740, FIG. 3C): significantly activated
- ATP production / ATP level [4]: significantly increase
- ATP production / ATP level [2]: significantly increase

SMILES: Fc1ccccc1Cc1nc(-c2nc(C(F)(F)F)n[nH]2)cn2ccnc12 [Compound B]
- PGC1α expression in hypothalamus [5]: increased PGC1α expression significantly
- ATP production / ATP level [6]: increase
- ATP production / ATP level [4]: increase
- ATP production / ATP level [2]: increase
- DDAH2 gene expression level ([7]; LHON patient cells (GM11605), FIG. 5B): increased
- DDAH2 gene expression level ([7]; Leigh patient cells (GM13740), FIG. 6B): increased
- TFAM gene expression level ([8]; LHON patient cells (GM11605), FIG. 5A): increased
- TFAM gene expression level ([8]; Leigh patient cells (GM13740), FIG. 6A): increased

SMILES: OC(CNc1nc(-c2cc(-c3ccon3)n(Cc3ccccc3F)n2)ncc1F)(C(F)(F)F)C(F)(F)F [Compound A]
- gene expression level of PGC1α in white adipose tissue (WAT) ([1]; 10 mg/kg in combination with enalapril at 3 mg/kg, FIG. 1A): increased
- gene expression level of AMPK in WAT [9]: increased
- gene expression level of Pparα in WAT [10]: increased
- gene expression level of Pparγ in liver [11]: increased
- levels of circulating ADMA [12]: reduced
